Source: patent publication US20230310408A1, “TLR7 INHIBITOR IN COMBINATION WITH PREDNISOLONE OR HYDROXYCHLOROQUINE FOR TREATING CUTANEOUS LUPUS ERYTHEMATOSUS” (priority 2020, published 2023)
Entries after “also recorded” stand apart in the source; their conditions may differ.

Experiments:
Assay type in all cases: in vivo, mouse
Female MRL/lpr mice [1] = experiment: Combination studies in MRL/lpr model of lupus, advanced disease; conditions: 5 weeks; for total number of cutaneous lesions: doses of Table 2 (FIG. 12); for neck erythema of cutaneous lesions: doses of Table 2 (FIG. 13, FIG. 14); for ear erythema of cutaneous lesions: doses of Table 2 (FIG. 15); for total erythema of cutaneous lesions: doses of Table 2 (FIG. 16)
Procedure: Female MRL/lpr mice of 16 weeks of age were treated for 5 weeks. […] Total skin lesions score includes cumulative score of Neck/Back, Face, Head and Ear lesions.

Female MRL/lpr mice [2] = experiment: Combination studies in MRL/lpr model of lupus, established disease; conditions: 5 weeks; for total number of cutaneous lesions: doses of Table 2 (FIG. 6); for neck erythema of cutaneous lesions: doses of Table 2 (FIG. 7); for ear erythema of cutaneous lesions: doses of Table 2 (FIG. 8); for total erythema of cutaneous lesions: doses of Table 2 (FIG. 9); for kidney injury marker proteinuria: doses of Table 2 (FIG. 10); for kidney injury marker urinary NGAL: doses of Table 2 (FIG. 11)
Procedure: Female MRL/lpr mice of 15 weeks of age were treated for 5 weeks. […] Total skin lesions score includes cumulative score of Neck/Back, Face, Head and Ear lesions

Female MRL/lpr mice [3] = experiment: Cutaneous model of lupus: female MRL/lpr mice treated orally once daily for 8 weeks;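 for all read-outs here: mice aged 12–14 weeks, randomized by anti-dsDNA antibody titer and urinary NGAL, treated groups compared against vehicle controls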; conditions: for % Survival / anti-dsDNA, anti-Ro and anti-smRNP auto-antibody titers / kidney injury markers (proteinuria and urinary NGAL) / cutaneous lesions (number of lesions on face, neck, head, ear; total lesions) / erythema of cutaneous lesions (neck, ear, total): oral once daily; for % Survival / cutaneous lesions (number of lesions on face, neck, head, ear; total lesions) / erythema of cutaneous lesions (neck, ear, total): 8 weeks; for anti-dsDNA, anti-Ro and anti-smRNP auto-antibody titers: 8 weeks (FIG. 3); for anti-dsDNA, anti-Ro and anti-smRNP auto-antibody titers / kidney injury markers (proteinuria and urinary NGAL): at 0.25 and 0.75 mg/kg Compound (I); for kidney injury markers (proteinuria and urinary NGAL): 8 weeks (FIG. 4); for cutaneous lesions (number of lesions on face, neck, head, ear; total lesions): versus vehicle (FIG. 1); for erythema of cutaneous lesions (neck, ear, total): versus vehicle (FIG. 2)

**Q.** For hydroxychloroquine [HCQ], which “% Survival” value (Female MRL/lpr mice [1]; 100 mg/kg) is on record?
**A.** Its value is 100%.

**Q.** What about the “total number of cutaneous lesions” value (Female MRL/lpr mice [1]) of the same compound?
**A.** Its value is “suppression of cutaneous lesions but less than treatment with Compound (I)”.

**Q.** What about the “neck erythema of cutaneous lesions” value (Female MRL/lpr mice [1]) of the same compound?
**A.** Its value is “suppression”.

**Q.** And the “ear erythema of cutaneous lesions” value (Female MRL/lpr mice [1])?
**A.** Its value is “suppression of erythema of cutaneous lesions on the ear of mice but less than treatment with Compound (I)”.

**Q.** And the “total erythema of cutaneous lesions” value (Female MRL/lpr mice [1])?
**A.** Its value is “suppression”.

**Q.** What about the “% Survival” value (Female MRL/lpr mice [2]; 100 mg/kg) of the same compound?
**A.** The value was 93.3%.

**Q.** What about the “total number of cutaneous lesions” value (Female MRL/lpr mice [2]) of the same compound?
**A.** Its value is “suppression of cutaneous lesions but less than treatment with Compound (I)”.

**Q.** What about the “neck erythema of cutaneous lesions” value (Female MRL/lpr mice [2]) of the same compound?
**A.** Its value is “suppression”.

**Q.** And the “ear erythema of cutaneous lesions” value (Female MRL/lpr mice [2])?
**A.** The value was “suppression of erythema of cutaneous lesions on the ear of mice but less than treatment with Compound (I)”.

**Q.** And the “total erythema of cutaneous lesions” value (Female MRL/lpr mice [2])?
**A.** Its value is “suppression”.

**Q.** And the “kidney injury marker proteinuria” value (Female MRL/lpr mice [2])?
**A.** Its value is “suppression”.

**Q.** And the “kidney injury marker urinary NGAL” value (Female MRL/lpr mice [2])?
**A.** The value was “suppression”.

**Q.** What does the source list for `Cc1c(-c2[nH]c3ccc(C4CCN(CC(N)=O)CC4)cc3c2C(C)C)cn2ncnc2c1C` [Compound (I), 2-(4-(2-(7,8-dimethyl-[1,2,4]triazolo[1,5-a]pyridin-6-yl)-3-isopropyl-1H-indol-5-yl)piperidin-1-yl)acetamide]?
**A.** % Survival (Female MRL/lpr mice [1]; 0.25 mg/kg): 93.3%; total number of cutaneous lesions (Female MRL/lpr mice [1]): suppressed; neck erythema of cutaneous lesions (Female MRL/lpr mice [1]): suppressed; also recorded: increased suppression of erythema of cutaneous lesions on the neck of mice compared the treatment with hydroxychloroquine; ear erythema of cutaneous lesions (Female MRL/lpr mice [1]): suppressed; total erythema of cutaneous lesions (Female MRL/lpr mice [1]): suppressed; % Survival (Female MRL/lpr mice [2]; 0.25 mg/kg): 100%; total number of cutaneous lesions (Female MRL/lpr mice [2]): suppressed; neck erythema of cutaneous lesions (Female MRL/lpr mice [2]): suppressed; ear erythema of cutaneous lesions (Female MRL/lpr mice [2]): suppressed; total erythema of cutaneous lesions (Female MRL/lpr mice [2]): suppressed; kidney injury marker proteinuria (Female MRL/lpr mice [2]): suppression; kidney injury marker urinary NGAL (Female MRL/lpr mice [2]): suppression; % Survival (Female MRL/lpr mice [3]; 0.005 mg/kg): 87%; % Survival (Female MRL/lpr mice [3]; 0.02 mg/kg): 93%; % Survival (Female MRL/lpr mice [3]; 0.25 mg/kg): 100%; % Survival (Female MRL/lpr mice [3]; 0.75 mg/kg): 100%; Type I IFN response gene expression (Female MRL/lpr mice [3]; at 0.25 and 0.75 mg/kg, blood, qPCR): inhibited; anti-dsDNA, anti-Ro and anti-smRNP auto-antibody titers (Female MRL/lpr mice [3]): Inhibition; also recorded: significant suppression; kidney injury markers (proteinuria and urinary NGAL) (Female MRL/lpr mice [3]): reduction; also recorded: Inhibition; also recorded: suppression; cutaneous lesions (number of lesions on face, neck, head, ear; total lesions) (Female MRL/lpr mice [3]): significant and robust dose-dependent suppression; also recorded: Dose-dependent inhibition; erythema of cutaneous lesions (neck, ear, total) (Female MRL/lpr mice [3]): suppressed; also recorded: significant reduction; also recorded: Dose-dependent inhibition

**Q.** Which results are given for `CC12C=CC(=O)C=C1CCC1C2C(O)CC2(C)C1CCC2(O)C(=O)CO` (stereo not shown) [Prednisolone, 11,17-dihydroxy-17-(2-hydroxyacetyl)-10,13-dimethyl-6,7,8,9,10,11,12,13,14,15,16,17-dodecahydrocyclopenta[a] phenanthren-3-one]?
**A.** % Survival (Female MRL/lpr mice [1]; 1 mg/kg): 86.6%; % Survival (Female MRL/lpr mice [1]; 10 mg/kg): 93.3%; total number of cutaneous lesions (Female MRL/lpr mice [1]): suppression of cutaneous lesions but less than treatment with Compound (I); neck erythema of cutaneous lesions (Female MRL/lpr mice [1]): suppression; ear erythema of cutaneous lesions (Female MRL/lpr mice [1]): suppression of erythema of cutaneous lesions on the ear of mice but less than treatment with Compound (I); total erythema of cutaneous lesions (Female MRL/lpr mice [1]): suppression; % Survival (Female MRL/lpr mice [2]; 1 mg/kg): 93.3%; % Survival (Female MRL/lpr mice [2]; 10 mg/kg): 93.3%; total number of cutaneous lesions (Female MRL/lpr mice [2]): suppression of cutaneous lesions but less than treatment with Compound (I); neck erythema of cutaneous lesions (Female MRL/lpr mice [2]): suppression; ear erythema of cutaneous lesions (Female MRL/lpr mice [2]): suppression of erythema of cutaneous lesions on the ear of mice but less than treatment with Compound (I); total erythema of cutaneous lesions (Female MRL/lpr mice [2]): suppression; kidney injury marker proteinuria (Female MRL/lpr mice [2]): suppression; kidney injury marker urinary NGAL (Female MRL/lpr mice [2]): suppression; % Survival (Female MRL/lpr mice [3]; 10 mg/kg): 100%; anti-dsDNA, anti-Ro and anti-smRNP auto-antibody titers (Female MRL/lpr mice [3]): inhibition; kidney injury markers (proteinuria and urinary NGAL) (Female MRL/lpr mice [3]): reduction; cutaneous lesions (number of lesions on face, neck, head, ear; total lesions) (Female MRL/lpr mice [3]): inhibition; erythema of cutaneous lesions (neck, ear, total) (Female MRL/lpr mice [3]): reduction
